For this experiment, the target named is Cyclin-dependent kinase 2/cyclin E1 (Homo sapiens, UniProt P24941). Kind of experiment: Inhibition of human full length recombinant C-terminal 6His-tagged CDK2/N-terminal GST-tagged cyclin E1 expressed in baculovirus-infected Sf21 cells using 5-FAM- QSPKKG peptide as substrate preincubated with enzyme and ATP for 30 mins followed by substrate addition and measured after 20 hrs by fluorescence- based microfluidic mobility shift assay.

What is called IC50 is the concentration at which inhibition is half-maximal. Turning to `CC(C)NC(=O)O[C@@H]1CC[C@H](c2cc(NC(=O)c3ccnn3C)n[nH]2)C1`, the IC50 was no more than 100 nM.
Then `CC(C)NC(=O)O[C@@H]1CC[C@H](c2cc(NC(=O)c3ccnc4ncsc34)n[nH]2)C1`, with no more than 100 nM.
Then `Cc1cc(CC(=O)Nc2cc([C@H]3CC[C@@H](OC(=O)N4CCC4(C)C)C3)[nH]n2)on1`, with no more than 100 nM; and `COCc1cc(C(=O)Nc2cc([C@H]3CC[C@@H](OC(=O)N(C)C(C)C)C3)[nH]n2)n(C)n1`, with no more than 100 nM.
The figure for `Cc1cc(CC(=O)Nc2cc([C@H]3CCC[C@@H](OC(=O)NC4(C)CC4)CC3)[nH]n2)on1` is no more than 100 nM.
`Cc1ncc(CC(=O)Nc2cc([C@H]3CC[C@@H](OC(=O)NC(C)C)C3)[nH]n2)s1`: the half-maximal inhibitory concentration (IC50) was no more than 100 nM.
Then `CC(C)NC(=O)O[C@@H]1CC[C@H](c2cc(NC(=O)Cc3ccccc3S(C)(=O)=O)n[nH]2)C1`, with no more than 100 nM; and `CC1(NC(=O)O[C@H]2CC[C@@H](c3cc(NC(=O)Cc4ccccc4)n[nH]3)C2)CC1`, with no more than 100 nM; and `CC(C)NC(=O)O[C@H]1CC[C@@H](c2cc(NC(=O)c3ccnn3C)n[nH]2)C1`, with no more than 100 nM.
Turning to `CC(C)NC(=O)O[C@@H]1CC[C@H](c2cc(NC(=O)Cc3ccccc3)n[nH]2)C1`, the 50% inhibitory concentration (IC50) was no more than 100 nM.
Then `CC1(NC(=O)O[C@@H]2CC[C@H](c3cc(NC(=O)Cc4ccccc4)n[nH]3)C2)CC1`, with no more than 100 nM; and `COc1cc(CC(=O)Nc2cc([C@H]3CC[C@@H](OC(=O)NC(C)C)C3)[nH]n2)ccn1`, with no more than 100 nM.

(Values after ChEMBL document CHEMBL5113545, “Selective Cyclin-Dependent Kinase Inhibitors and Their Application in Cancer Therapy” (ACS Med Chem Lett, 2022).)
